{
  "source": "patent US9994617B2",
  "about": "“Modulation of structured polypeptide specificity” (BICYCLE THERAPEUTICS LIMITED, priority 2011, dated 2018)",
  "key": {"[1]": {"test": "Rapid plasma stability profiling, method 1 (MALDI-TOF), rat plasma", "format": "in vitro ADME", "conditions": "35% rat plasma, 37 deg C, method 1, qualitative; listed as N-methylation of Arg5", "experimental": "A rapid plasma stability profiling assay was developed that employed mass spectrometric detection (MALDI-TOF, Voyager DE, Applied Biosystems) of the parent mass, until the time when the parent peptide mass was no longer observable. Specifically, 200 uM of peptide was incubated in the presence of 35% rat or human plasma (Sera labs, using citrate as anticoagulant) at 37 deg C, which was supplemented with 1×PBS (derived from a 10×PBS Stock, Sigma). At various time points (i.e. t=0, 3, 24 hrs, henceafter daily up to 10 days), 2 uL of sample was added to 18 uL of 30 mM ammonium bicarbonate in a 1:1 mixture of acetonitrile:H2O. Samples were frozen at −80 deg C until the time of analysis. For mass spectrometric analysis that determines the approximate detection window of the peptide, the acetonitrile:H2O-diluted sample of a given time point was spotted directly (0.7 uL) onto the MALDI plate. Matrix (alpha-cyanocinnamic acid, Sigma, prepared as a saturated solution in 1:1 acetonitrile:water containing 0.1% trifluoroacetic acid) was layered over the sample (1 uL). At a similar laser intensity setting on the MALDI TOF, the time could then be determined until parent peptide was no longer detectable. It should be noted that this is a qualitative assay serves to detect relative changes in plasma stability."}, "[2]": {"target": "human plasma kallikrein (hPK) (Homo sapiens, UniProt P03952)", "test": "Enzyme inhibition assay, human plasma kallikrein"}, "[3]": {"test": "Quantitative plasma stability, method 3 (LC/MS), rat plasma", "format": "in vitro ADME", "conditions": "determined quantitatively by LC/MS, read-out: rat plasma halflife (converted)", "experimental": "To obtain plasma stability quantitatively, peptide stock solutions (1 mM in DMSO) were shipped to Biofocus, UK, who performed the analysis. Peptides were diluted to 100 uM with water, and diluted 1:20 in plasma (5 uM final concentration, with the plasma at 95%), sampled as appropriate, precipitated as above, and quantified using a Waters Xevo TQ-MS."}, "[4]": {"target": "rat plasma kallikrein (rPK) (Rattus norvegicus, UniProt P14272)", "sequence (P14272 391-638 limits assumed)": "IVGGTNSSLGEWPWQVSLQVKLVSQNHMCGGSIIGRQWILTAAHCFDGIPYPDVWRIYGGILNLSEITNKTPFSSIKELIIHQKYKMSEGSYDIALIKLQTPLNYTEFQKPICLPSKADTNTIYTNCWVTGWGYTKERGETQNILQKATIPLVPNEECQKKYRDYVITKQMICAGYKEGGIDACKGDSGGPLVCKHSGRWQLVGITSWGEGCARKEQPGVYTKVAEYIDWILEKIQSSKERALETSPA", "test": "Enzyme inhibition assay, rat plasma kallikrein"}, "[5]": {"target": "T1, Human factor XIa (hfXIa) (Homo sapiens, UniProt P03951)", "T1 sequence (P03951 388-625 limits assumed)": "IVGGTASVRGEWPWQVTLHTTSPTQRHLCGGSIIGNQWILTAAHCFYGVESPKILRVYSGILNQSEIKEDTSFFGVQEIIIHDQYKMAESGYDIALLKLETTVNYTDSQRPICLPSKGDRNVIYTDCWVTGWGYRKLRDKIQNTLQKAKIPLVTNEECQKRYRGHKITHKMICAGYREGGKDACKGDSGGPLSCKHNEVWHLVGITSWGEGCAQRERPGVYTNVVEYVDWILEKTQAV", "T1 sequence (P03951 19-387 partner limits assumed)": "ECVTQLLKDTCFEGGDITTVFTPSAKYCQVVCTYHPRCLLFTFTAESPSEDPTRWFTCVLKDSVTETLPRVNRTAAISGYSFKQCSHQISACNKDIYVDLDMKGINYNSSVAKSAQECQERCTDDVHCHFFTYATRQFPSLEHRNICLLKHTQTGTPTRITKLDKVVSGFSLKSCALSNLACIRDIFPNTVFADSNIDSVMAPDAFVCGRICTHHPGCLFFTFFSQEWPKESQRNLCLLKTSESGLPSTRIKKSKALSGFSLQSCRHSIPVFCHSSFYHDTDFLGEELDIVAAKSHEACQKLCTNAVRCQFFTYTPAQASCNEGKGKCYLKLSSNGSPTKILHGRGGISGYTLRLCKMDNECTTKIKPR", "conditions": "highest concentration tested (10 μM), Heinis et al. 2009; cited from earlier work"}, "[6]": {"target": "monkey plasma kallikrein (mPK) (Macaca mulatta, UniProt A0A1D5Q7U7)", "sequence (A0A1D5Q7U7 391-638)": "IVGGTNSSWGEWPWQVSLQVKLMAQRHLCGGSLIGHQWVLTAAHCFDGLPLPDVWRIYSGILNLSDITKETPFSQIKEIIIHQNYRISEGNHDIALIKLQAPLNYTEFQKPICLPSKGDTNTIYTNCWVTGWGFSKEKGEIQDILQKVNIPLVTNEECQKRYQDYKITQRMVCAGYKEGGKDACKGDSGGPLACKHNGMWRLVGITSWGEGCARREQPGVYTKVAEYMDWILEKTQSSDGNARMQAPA", "test": "Inhibition of monkey plasma kallikrein"}, "[7]": {"target": "T1, Human factor XIa (hfXIa)", "test": "Inhibition of paralogous protease factor XIa", "format": "biochemical", "conditions": "highest concentration tested (100 μM)", "experimental": "(§1) The target specificity of the isolated bicyclic peptide inhibitors was assessed by determining the inhibition of trypsin-like human serine proteases of the class S1A which comprises 79 members (Yousef, et al, Biochem Biophys Res Commun 2003, 305 (1), 28-36). The panel of proteases included hfXIa which shares the highest sequence identity with hPK (69%) as well as the structurally less related but vital human serine proteases thrombin (36%), plasmin (34% sequence identity with hPK) and factor XIIa (35%)."}, "[8]": {"target": "Human thrombin (Homo sapiens, UniProt P00734)", "test": "Inhibition of paralogous protease thrombin", "format": "biochemical", "conditions": "for inhibition of thrombin: highest concentration tested (100 μM)", "experimental": "as §1"}, "[9]": {"target": "T2, Human factor XIIa (hfXIIa) (Homo sapiens, UniProt P00748)", "T2 sequence (P00748 373-615 limits assumed)": "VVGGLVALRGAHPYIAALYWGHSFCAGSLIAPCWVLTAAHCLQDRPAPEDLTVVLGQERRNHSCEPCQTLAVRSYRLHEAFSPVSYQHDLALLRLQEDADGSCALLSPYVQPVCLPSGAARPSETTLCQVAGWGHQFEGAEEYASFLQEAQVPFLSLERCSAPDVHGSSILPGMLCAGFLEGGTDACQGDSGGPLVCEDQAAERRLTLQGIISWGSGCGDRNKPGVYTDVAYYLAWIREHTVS", "test": "Inhibition of paralogous protease factor XIIa", "format": "biochemical", "conditions": "for inhibition of factor XIIa: highest concentration tested (100 μM)", "experimental": "as §1"}, "[10]": {"target": "Human plasmin (Homo sapiens, UniProt P00747)", "sequence (P00747 581-810 limits assumed)": "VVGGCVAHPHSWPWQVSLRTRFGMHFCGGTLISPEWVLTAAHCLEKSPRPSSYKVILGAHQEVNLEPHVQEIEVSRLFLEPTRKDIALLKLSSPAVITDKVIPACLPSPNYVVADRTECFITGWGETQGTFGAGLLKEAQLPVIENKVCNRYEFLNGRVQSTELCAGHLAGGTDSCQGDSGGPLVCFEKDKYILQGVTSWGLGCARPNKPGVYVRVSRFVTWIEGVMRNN", "sequence (P00747 97-580 partner limits assumed)": "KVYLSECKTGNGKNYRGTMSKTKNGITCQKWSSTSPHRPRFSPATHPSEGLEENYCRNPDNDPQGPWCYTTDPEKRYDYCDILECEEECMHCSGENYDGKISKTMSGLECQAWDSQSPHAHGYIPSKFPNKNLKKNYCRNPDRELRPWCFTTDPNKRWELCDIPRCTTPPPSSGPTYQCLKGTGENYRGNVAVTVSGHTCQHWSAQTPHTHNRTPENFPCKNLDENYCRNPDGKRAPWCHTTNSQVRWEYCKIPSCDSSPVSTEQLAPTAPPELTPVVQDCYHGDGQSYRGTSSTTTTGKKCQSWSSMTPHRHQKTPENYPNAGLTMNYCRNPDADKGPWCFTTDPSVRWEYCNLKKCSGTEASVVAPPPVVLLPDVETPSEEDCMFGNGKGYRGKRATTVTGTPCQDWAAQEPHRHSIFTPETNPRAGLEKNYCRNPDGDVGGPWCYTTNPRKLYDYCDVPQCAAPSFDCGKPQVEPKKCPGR", "test": "Inhibition of paralogous protease plasmin", "format": "biochemical", "conditions": "highest concentration tested (100 μM)", "experimental": "as §1"}},
  "note": "Numbered stars: 1 amine (or outer) side, 2 acyl side, 3 side chain; on linkers, the order of the positions; unused ones are H or OH. Bridge positions count the residues as written; N and C are the ends. Peptide text beside a SMILES is read from it. TBMB = c1c(C[*:1])cc(C[*:3])cc1C[*:2]",
  "data": [
    {"smiles": "CC(=O)N[C@H]1CSCc2cc3cc(c2)CSC[C@H](NC(=O)[C@H](CCCNC(=N)N)N(C)C(=O)[C@H](C)NC(=O)[C@@H]2CCCN2C(=O)[C@H](Cc2c[nH]c4ccccc24)NC(=O)[C@H](CO)NC1=O)C(=O)N[C@@H](CC(C)C)C(=O)N[C@@H](Cc1c[nH]cn1)C(=O)N[C@@H](CCC(N)=O)C(=O)N[C@@H](CC(=O)O)C(=O)N[C@@H](CC(C)C)C(=O)N[C@H](C(N)=O)CSC3", "note": "[Ac-(06-34-18) NMeArg5]", "values": [
      {"measurement": "Observable in rat plasma, for days", "setting": "[1]", "value": "exceeds the assay time"},
      {"measurement": "Ki", "setting": "[2]", "value": 3.5, "unit": "nM"},
      {"measurement": "fold reduction in affinity to kallikrein compared to wildtype peptide", "setting": "[2]; versus Ac-06-34-18(TMB)-NH2", "value": 20, "unit": "fold"}
    ]},
    {"smiles": "CC(=O)N[C@H]1CSCc2cc3cc(c2)CSC[C@H](NC(=O)[C@H](CCCNC(=N)N)NC(=O)[C@H](C)NC(=O)[C@@H]2CCCN2C(=O)[C@H](Cc2c[nH]c4ccccc24)NC(=O)[C@H](CO)NC1=O)C(=O)N[C@@H](CC(C)C)C(=O)N[C@@H](Cc1c[nH]cn1)C(=O)N[C@@H](CCC(N)=O)C(=O)N[C@@H](CC(=O)O)C(=O)N[C@@H](CC(C)C)C(=O)N[C@H](C(N)=O)CSC3", "note": "[Ac-(06-34-18) wildtype]", "values": [
      {"measurement": "half-life at 5 uM", "setting": "[3]", "value": "~2", "unit": "h"},
      {"measurement": "IC50", "setting": "[4]", "value": 1.7, "unit": "nM"},
      {"measurement": "Ki", "setting": "[2]", "value": 0.17, "unit": "nM"}
    ]},
    {"smiles": "CC(C)C[C@@H]1NC(=O)[C@H](C)NC(=O)[C@H](CCC(=O)O)NC(=O)[C@H](CC(=O)O)NC(=O)[C@H](C)NC(=O)[C@@H]2CCCN2C(=O)[C@@H]2CSCc3cc(cc(c3)CSC[C@@H](C(=O)NCC(N)=O)NC1=O)CSC[C@H](NC(=O)[C@H](C)N)C(=O)N[C@@H](CO)C(=O)N[C@@H](CC(=O)O)C(=O)N[C@@H](CCCNC(=N)N)C(=O)N[C@@H](Cc1ccccc1)C(=O)N[C@@H](CCCNC(=N)N)C(=O)N[C@@H](CC(N)=O)C(=O)N2", "note": "[PK15] (H-ACSDRFRNCPADEALCG-NH2; linker 2-9-16 via TBMB)", "values": [
      {"measurement": "inhibition of factor XIa (hfXIa)", "setting": "[5]", "value": "did not inhibit"},
      {"measurement": "Ki", "setting": "[6]", "value": 2.9, "unit": "nM"}
    ]},
    {"smiles": "CC(C)C[C@@H]1NC(=O)[C@H](CC(N)=O)NC(=O)[C@H](CCC(N)=O)NC(=O)[C@H](Cc2c[nH]cn2)NC(=O)[C@H](CC(C)C)NC(=O)[C@@H]2CSCc3cc(cc(c3)CSC[C@@H](C(=O)N[C@@H](C)C(N)=O)NC1=O)CSC[C@H](NC(=O)[C@H](C)N)C(=O)N[C@@H]([C@@H](C)O)C(=O)N[C@@H](Cc1ccc(O)cc1)C(=O)N1CCC[C@H]1C(=O)N[C@@H](Cc1ccc(O)cc1)C(=O)N[C@@H](CCCCN)C(=O)N2", "note": "[Peptide 2A10] (H-ACTYPYKCLHQNLCA-NH2; linker 2-8-14 via TBMB)", "values": [
      {"measurement": "inhibition of hfXIa", "setting": "[7]", "value": "did not inhibit"},
      {"measurement": "inhibition of thrombin", "setting": "[8]", "value": "did not inhibit"},
      {"measurement": "inhibition of factor XIIa", "setting": "[9]", "value": "did not inhibit"},
      {"measurement": "Ki", "setting": "[2]", "value": 4.98, "unit": "nM"}
    ]},
    {"smiles": "C[C@H](N)C(=O)N[C@H]1CSCc2cc3cc(c2)CSC[C@H](NC(=O)[C@H](CCCNC(=N)N)NC(=O)[C@H](C)NC(=O)[C@@H]2CCCN2C(=O)[C@H](Cc2c[nH]c4ccccc24)NC(=O)[C@H](CCCNC(=N)N)NC1=O)C(=O)N[C@@H]([C@@H](C)O)C(=O)N[C@@H](Cc1c[nH]cn1)C(=O)N[C@@H](CCC(N)=O)C(=O)N[C@@H](CC(N)=O)C(=O)N[C@@H](Cc1ccc(O)cc1)C(=O)N[C@H](C(=O)N[C@@H](C)C(N)=O)CSC3", "note": "[Peptide 06-54] (H-ACRWPARCTHQNYCA-NH2; linker 2-8-14 via TBMB)", "values": [
      {"measurement": "inhibition of hfXIa", "setting": "[7]", "value": "did not inhibit"},
      {"measurement": "IC50", "setting": "[8]", "value": "> 10000", "unit": "nM"},
      {"measurement": "inhibition of thrombin", "setting": "[8]", "value": "did not inhibit"},
      {"measurement": "inhibition of plasmin", "setting": "[10]", "value": "did not inhibit"},
      {"measurement": "IC50", "setting": "[9]", "value": "> 10000", "unit": "nM"},
      {"measurement": "inhibition of factor XIIa", "setting": "[9]", "value": "did not inhibit"},
      {"measurement": "Ki", "setting": "[4]", "value": 7, "unit": "nM"},
      {"measurement": "Ki", "setting": "[2]", "value": 0.49, "unit": "nM"}
    ]}
  ]
}
